Data from US4439434A, “Cephalosporin derivative and pharmaceutical composition containing the derivative” (Kureha Kagaku Kogyo Kabushiki Kaisha, priority 1981, dated 1984).

Key:
Lactobacillus bifidus = test: Effect on the intestinal bacterial colonies: Lactobacillus bifidus in feces; format: in vivo; details: mice, oral 500 mg/kg/day for two consecutive days, feces one day after administration
Experimental: (§1) Each of the cephalosporin derivatives of the invention prepared in Examples 1 to 10 was orally administered to mice (one group consisting of five female ICR mice of 6-week-old) for two consecutive days at a dose of 500 mg/kg/day.
(§2) Before and one day after the administration, feces of each mouse were collected and diluted with an anaerobic diluent (phosphoric buffer solution) of 100 times volume and the diluted feces were ground. 0.1 ml of the diluted and ground feces was smeared on each culture medium shown in Table 1 and cultured aerobically or anaerobically (according to the anaerobic glove box method) under each condition shown in Table 1 and the number of each bacterium shown in Table 1 was counted.
BS agar anaerobic, 37° C.,

[1] = tested on: Staphylococcus aureus IAM 1011; test: Antibacterial activity (MIC, agar plate) against Staph. aureus; format: cell-based; details: Staphylococcus aureus IAM 1011, Mueller-Hinton agar, 37° C., 18 to 24 hours; unit assumed
Experimental: (§3) Antibacterial activity of each of the cephalosporin derivatives of the invention prepared in Examples 1 to 10 was examined against the following two bacteria according to the standard method of Japan Society of Chemitherapy: Escherichia coli IFO 12734 and Staphylococcus aureus IAM 1011.
(§4) Each bacterial strain was inoculated into the Mueller-Hinton's culture medium and cultured at 37° C. for 18 to 48 hours. The cultured medium was diluted so as to contain 1×10^6 cells of the bacteria per one ml, and the obtained medium was used as the bacterial specimen.
(§5) Agar plates were prepared by adding one part by weight of each solution of the cephalosporin derivative of the invention at a predetermined concentration to nine parts by weight of Mueller-Hinton's culture medium.
(§6) A loopful amount of the bacterial specimen prepared above was smeared to make a streak of about 2 cm on each agar plate prepared above and cultured at 37° C. for 18 to 24 hours.
(§7) The minimum concentration for completely inhibiting proliferation of the bacteria (referred to as MIC) was determined.

Streptococcus spp. = test: Effect on the intestinal bacterial colonies: Streptococcus spp. in feces; format: in vivo; details: mice, oral 500 mg/kg/day for two consecutive days, feces one day after administration
Experimental: as §1, §2
TATAC agar aerobic, 37° C.,

Pseudomonas aeruginosa = test: Effect on the intestinal bacterial colonies: Pseudomonas aeruginosa in feces; format: in vivo; details: mice, oral 500 mg/kg/day for two consecutive days, feces one day after administration
Experimental: as §1, §2
NAC agar aerobic, 37° C.,

[2] = tested on: Escherichia coli IFO 12734; test: Antibacterial activity (MIC, agar plate) against E. coli; format: cell-based; details: Escherichia coli IFO 12734, Mueller-Hinton agar, 37° C., 18 to 24 hours; unit assumed
Experimental: as §3, §4, §5, §6, §7

Escherichia coli = test: Effect on the intestinal bacterial colonies: Escherichia coli in feces; format: in vivo; details: mice, oral 500 mg/kg/day for two consecutive days, feces one day after administration
Experimental: as §1, §2
DHL agar aerobic, 37° C.,

[3] = tested on: Staphylococcus aureus IAM 1011; test: Activation by rat liver homogenate (S-9 mix), proliferation-inhibiting circle, penicillin cup method; format: cell-based; details: incubated with rat liver S-9 mix, 37° C. 20 min; circle diameter relative to the starting compound
Experimental: As an activating enzyme of metabolism, a rat liver homogenate (S-9, manufactured by Oriental Yeast Company, Japan) was used in the following composition per 1 ml (hereinafter referred to as S-9 mix). 0.1 ml of the solution of each of the cephalosporin derivatives of the invention prepared in Examples 1 to 10 at a concentration of 100 μg/ml was mixed with 0.9 ml of S-9 mix or 0.9 ml of 0.1 M phosphoric buffer solution (as a control) and the obtained mixture was incubated at 37° C. for 20 min. with shaking. Staphylococcus aureus IAM 1011 was inoculated into a Mueller-Hinton's culture medium and cultured at 37° C. for 18 hours. The culture medium was adjusted to a cell concentration of 1×10^8 per 1 ml and mixed with 50 times by volume of Mueller-Hinton's agar culture medium to obtain an agar plate. A penicillin cup of 8 mm in diameter was placed on the agar plate prepared above, and into the cup 0.1 ml of the mixture containing the cephalosporin derivative prepared above was introduced and allowed to stand at 4° C. for 2 hours, and then cultured at 37° C. for 18 hours to measure the diameter of a circle in which the proliferation of bacteria was inhibited (proliferation-inhibiting circle). In Table 4, the proliferation-inhibiting index is shown in the ratio (%) of the diameter of the proliferation-inhibiting circle obtained by using each of the cephalosporin derivatives of the invention to that obtained by using each of the starting compound in preparing each of the cephalosporin derivatives of the invention.

Bacteroides = test: Effect on the intestinal bacterial colonies: Bacteroides in feces; format: in vivo; details: mice, oral 500 mg/kg/day for two consecutive days, feces one day after administration
Experimental: as §1, §2
Bacteroides NBGT agar anaerobic, 37° C.,

[4] = tested on: Lactobacillus acidophilus; test: Effect on the intestinal bacterial colonies: Lactobacillus acidophilus in feces; format: in vivo; details: mice, oral 500 mg/kg/day for two consecutive days, feces one day after administration
Experimental: as §1, §2
Lactobacillus acidophilus
LBS agar anaerobic, 37° C.,

ICR-JCL mouse = details: conventional cephalosporin antibiotic, route not stated; cited from earlier work

| SMILES | Logarithmic value of the number of bacterial cells per one g of feces, L. bifidus (Lactobacillus bifidus) | MIC Staph. aureus [1] [µg/mL] | Logarithmic value of the number of bacterial cells per one g of feces, Strept. spp. (Streptococcus spp.) | Logarithmic value of the number of bacterial cells per one g of feces, Ps. aeruginosa (Pseudomonas aeruginosa) | MIC E. coli [2] [µg/mL] | Logarithmic value of the number of bacterial cells per one g of feces, E. coli (Escherichia coli) | Proliferation-inhibiting index (%) After adding S-9 mix [3] | Logarithmic value of the number of bacterial cells per one g of feces, Bacteroides (Bacteroides) | Logarithmic value of the number of bacterial cells per one g of feces, L. acidophilus [4] | LD50 (ICR-JCL mouse) |
| --- | --- | --- | --- | --- | --- | --- | --- | --- | --- | --- |
| COC(=O)CNC(=O)c1ccc(NC(=O)C2=C(COC(C)=O)CSC3C(NC(=O)Cc4cccs4)C(=O)N23)cc1 (stereo not shown) [Example 9, N-(4-carbomethoxymethylcarbamoylphenyl)-7-(thienyl-2-acetamido)cephalosporanic acid amide] | 8.6 | ≥ 12.5 | 7.1 | < 3.0 | ≥ 100 | 6.5 | +++ (66-100) | 8.1 | 9.3 | – |
| COC(=O)c1ccccc1NC(=O)C1=C(COC(C)=O)CSC2C(NC(=O)Cc3cccs3)C(=O)N12 (stereo not shown) [Example 10, N-(2-carbomethoxyphenyl)-7-(thienyl-2-acetamido)cephalosporanic acid amide] | 8.2 | ≥ 12.5 | 6.4 | < 3.0 | ≥ 100 | 6.5 | + (1-33) | 8.0 | 9.0 | – |
| CC(=O)OCC1=C(C(=O)O)N2C(=O)[C@@H](NC(=O)Cc3cccs3)[C@H]2SC1 [cephalotin sodium] | – | – | – | – | – | – | – | – | – | about 5 g/kg |
